Where a name gives a salt, the structure may show the parent alone. Read-outs that look alike come from different tables or passages of the source.

Series [1] can be described thus: Cloud point temperature of a 0.025M aqueous solution of polyoxyethylene(8)nonylphenyl ether with 5% by weight additive. It is filed as physicochemical. As to conditions: for Effect on the cloud point temperature of nonionic surfactants: screening of non-electrolytes, in words. The procedure: An activity enhancer is accordingly defined as a non-electrolyte which is capable, at a concentration of 5% by weight of increasing the cloud point temperature of a 0.025M aqueous solution of polyoxyethylene(8)nonylphenyl ether by at least 10° C. Preferably the activity enhancer is one which is capable of increasing the cloud point temperature by at least 15° C., most preferably by at least 20° C.
It should be explained that the "cloud point" is a measure of the inverse solubility of a nonionic surfactant with temperature and can be determined by heating a standard clear aqueous solution of the nonionic surfactant until the solution becomes visibly cloudy and then measuring the temperature.
The cloud point temperature can conveniently be determined automatically using the equipment and method described by Baum et al in Mat. Res. Std. 4 26 (1964).
Examples of suitable compounds functioning as activity enhancers, together with the respective elevated cloud point temperature obtained in each case when using the standard test defined hereinbefore are listed below in Table 1.

For series [2], the system named is guinea pig foot pad stratum corneum. In words: Increase in extensibility of guinea pig foot pad stratum corneum. To be noted: 0.2 M 2-hydroxyoctanoic acid + additive at 5% w/w; 3 hours at 20° C.; relative humidity 65%. More on the design: Increase in stratum corneum extensibility: unit not given here. The procedure:
The ability of an additive to enhance the delivery to skin of 2-hydroxyoctanoic acid was measured in terms of the increase in extensibility of guinea pig foot pad stratum corneum following contact with each solution.
In this experiment, pieces of guinea pig foot pad stratum corneum, equilibrated at a relative humidity of 65%, were immersed in each solution for 3 hours at 20° C., and then removed, blotted dry and re-equilibrated at the same relative humidity. The extensibility of each piece of guinea pig foot pad stratum corneum was measured before and after this treatment in an extensiometer according to the method described in European Pat. No. 7785.

[3] abbreviates: Table 1, activity enhancer 5% by weight, 0.025 M polyoxyethylene(8)nonylphenyl ether.
Setting [4] is: Table 1, activity enhancer 5% by weight, control 33.5 °C., in °C.
Where [5] appears, read: table of extensibility results, additive at 5% w/w, in °C.
[6] abbreviates: Table 2, compound which is not an activity enhancer, 5% by weight.
Setting [7] is: Table 2, compound which is not an activity enhancer, 5% by weight, control 33.5 °C.

With “4-methyl-6-(2,4,6-trimethyl-pentyl)-2-(1H)--pyridone”, the Log partition coefficient (octanol/water) is 1.28.
As for `C1COCCO1` [1,4 Dioxane], in series [1] (setting [3]), the Cloud point temperature turned out to be 44.0 °C. Also, the “Elevation of cloud point temperature” value in series [1] (setting [4]) is reported as 10.5.
For the compound `CC(O)C(=O)O` (stereo not drawn) [2-hydroxypropionic acid], in series [2], the “Increase in stratum corneum extensibility” value (shortened to “Increase”) was found to be 17.1. The Cloud point temperature in series [1] (setting [3]) turned out to be 45.0 °C. The “Elevation of cloud point temperature” value in series [1] (setting [4]) and in series [1] (setting [5]) was 11.5 in each case.
On to `CC(C)CO` [2-methyl propan-1-ol], for which, in series [1] (setting [6]), the Cloud point temperature is 41.0 °C. Besides, the “Elevation of cloud point temperature” value in series [1] (setting [7]) worked out at 7.5 °C.
For the compound `CC(C)(C)O` [2-methyl propan-2-ol], the Cloud point temperature in series [1] (setting [3]) stood at 55.0 °C. For the same compound, the “Elevation of cloud point temperature” value in series [1] (setting [4]) amounted to 21.5.
On to `O=C1CCCN1` [2-pyrrolidone], for which, in series [2], the “Increase” value is recorded as 28.0. In series [1] (setting [5]), the “Elevation of cloud point temperature” value was found to be 15.5.
Regarding `CCC1OC(=O)C(C)C(OC2CC(C)(OC)C(O)C(C)O2)C(C)C(OC2OC(C)C(O)C(N(C)C)C2O)C(C)(O)CC(C)C(=O)C(C)C(O)C1(C)O` (stereo not drawn) [4'-hydroxyerythromycin], the Log partition coefficient (octanol/water) is 1.44.
For the setting “octanol/water at 20° C.”, `CCC1(c2ccccc2)C(=O)NC(=O)NC1=O` [5-ethyl-5-phenyl barbituric acid, reference compound] registered a Log partition coefficient of 1.42.
`CC(C)=O` [Acetone]: in series [1] (setting [3]), the Cloud point temperature was 46.3 °C. Further, the “Elevation of cloud point temperature” value in series [1] (setting [4]) is 12.8.
Consider `CC(O)CCO` (stereo not drawn) [Butan-1,3-diol], for which, in series [1] (setting [6]), the Cloud point temperature was 41.5 °C. The “Elevation of cloud point temperature” value in series [1] (setting [7]) was 8.0 °C.
On to `OCCCCO` [Butan-1,4-diol], for which the Cloud point temperature in series [1] (setting [3]) stood at 45.0 °C. Moreover, the “Elevation of cloud point temperature” value in series [1] (setting [4]) turned out to be 11.5.
Regarding `CCCCO` [Butan-1-ol], in series [2], the “Increase” value is 13.2. For the same compound, the Cloud point temperature in series [1] (setting [6]) worked out at 36.3 °C. Further, the entries for the “Elevation of cloud point temperature” value in series [1] (setting [7]) and in series [1] (setting [5]) were 2.8 °C and 2.8, respectively. In addition, the “Effect on the cloud point temperature of nonionic surfactants” value (“Effect on the cloud point temperature” below) in series [1] was “reduce the cloud point temperature”.
With `OC1CCCCC1` [Cyclohexanol], the Cloud point temperature in series [1] (setting [6]) is 11.0 °C. The “Elevation of cloud point temperature” value in series [1] (setting [7]) was -22.5 °C. Also, the “Effect on the cloud point temperature” value in series [1] is on record as “reduce the cloud point temperature”.
As to `CC(O)COCC(C)O` (stereo not drawn) [Di(2-hydroxypropyl) ether], the “Increase” value in series [2] is reported as 21.6. The Cloud point temperature in series [1] (setting [3]) turned out to be 44.8 °C. The “Elevation of cloud point temperature” value in series [1] (setting [4]) and in series [1] (setting [5]) was 11.3 each time.
For `C[S+](C)[O-]` [Dimethyl sulphoxide], the “Increase” value in series [2] was found to be 5. Moreover, in series [1] (setting [6]), the Cloud point temperature worked out at 33.9 °C. Further, the “Elevation of cloud point temperature” value was 0.4 °C in series [1] (setting [7]) and -0.5 in series [1] (setting [5]).
In the same order, the values of `OCCO` [Ethan-1,2-diol] are 5, 33.0 °C, -0.5 °C and -0.5.
Turning to `CCOC(=O)C(C)O` (stereo not drawn) [Ethyl-2hydroxypropanoate], the Cloud point temperature in series [1] (setting [3]) came to 52.1 °C. Moreover, the “Elevation of cloud point temperature” value in series [1] (setting [4]) is reported as 18.6.
As for `CC(O)CCC(C)O` (stereo not drawn) [Hexan-2,5-diol], the “Increase” value in series [2] amounted to 37.0. For the same compound, in series [1] (setting [3]), the Cloud point temperature came to 52.0 °C. For the same compound, the “Elevation of cloud point temperature” value in series [1] (setting [4]) and in series [1] (setting [5]) was 18.5 in each case.
In the case of `C1COCCN1` [Morpholine], the Cloud point temperature in series [1] (setting [6]) stood at 40.0 °C. For the same compound, the “Elevation of cloud point temperature” value in series [1] (setting [7]) stood at 6.5 °C.
Regarding `CC(=O)Nc1ccccc1C(=O)O` [N--acetyl O--aminobenzoic acid], where the note is “octanol/water at 20° C.”, the Log partition coefficient is 1.88.
As for `CCOCCOCCO` [POE(2) ethyl ether, polyoxyethylene(2) ethyl ether], the Cloud point temperature in series [1] (setting [3]) stood at 46.0 °C. In series [1] (setting [4]), the “Elevation of cloud point temperature” value came out at 12.5.
On to `COCCOCCO` [POE(2) methyl ether], for which the Cloud point temperature in series [1] (setting [3]) turned out to be 43.5 °C. In addition, in series [1] (setting [4]), the “Elevation of cloud point temperature” value turned out to be 10.0.
As to `CC(O)CC(C)O` (stereo not drawn) [Pentan-2,4-diol], the “Increase” value in series [2] was 17.0. In addition, in series [1] (setting [3]), the Cloud point temperature was 48.0 °C. The “Elevation of cloud point temperature” value in series [1] (setting [4]) and in series [1] (setting [5]) was 14.5 throughout.
`OCC(O)CO` [Propan-1,2,3-triol]: the “Increase” value in series [2] is reported as 5. Also, the Cloud point temperature in series [1] (setting [6]) was found to be 32.2 °C. Also, the “Elevation of cloud point temperature” value in series [1] (setting [7]) is -1.3 °C; in series [1] (setting [5]), -1.3. Moreover, in series [1], the “Effect on the cloud point temperature” value is given as “reduce the cloud point temperature”.
Turning to `CC(O)CO` (stereo not drawn) [Propan-1,2-diol], in series [2], the “Increase” value was found to be 12.6. The Cloud point temperature in series [1] (setting [6]) is 39.0 °C. The results for the “Elevation of cloud point temperature” value in series [1] (setting [7]) and in series [1] (setting [5]) were 5.5 °C and 5.5, respectively.
Turning to `CCCO` [Propan-1-ol], in series [1] (setting [3]), the Cloud point temperature was 53.0 °C. Besides, the “Elevation of cloud point temperature” value in series [1] (setting [4]) stood at 19.5.
Regarding `CC(C)O` [Propan-2-ol], in series [1] (setting [3]), the Cloud point temperature worked out at 56.0 °C. Moreover, the “Elevation of cloud point temperature” value in series [1] (setting [4]) worked out at 22.5.
In the case of `C1CCOC1` [Tetrahydrofuran], the Cloud point temperature in series [1] (setting [3]) was 45.0 °C. The “Elevation of cloud point temperature” value in series [1] (setting [4]) is on record as 11.5.
For the setting “octanol/water at 20° C.”, `CC(N)Cc1ccccc1` (stereo not drawn) [amphetamine, reference compound] gave a Log partition coefficient of 1.63.
Under “octanol/water”, `O=C(O)CCCCCCCC(=O)O` [azelaic acid, reference compound] returned a Log partition coefficient of 1.57.
As to `c1ccc2[nH]cnc2c1` [benzimidazole], the Log partition coefficient (octanol/water at 20° C.) was found to be 1.34.
Regarding `CC1(C)S[C@@H]2[C@H](NC(=O)Cc3ccccc3)C(=O)N2[C@H]1C(=O)O` [benzyl pencillin, reference compound], the Log partition coefficient (octanol/water) is 1.83.
In the case of `CC[C@H]1OC(=O)[C@H](C)[C@@H](O[C@H]2C[C@@](C)(OC)[C@@H](O)[C@H](C)O2)[C@H](C)[C@@H](O[C@@H]2O[C@H](C)C[C@H](N(C)C)[C@H]2O)[C@](C)(O)C[C@@H](C)C(=O)[C@H](C)[C@@H](O)[C@]1(C)O` [erythromycin, reference compound], the Log partition coefficient (octanol/water) was found to be 1.26.
In the case of `CCOC(=O)c1cccnc1` [ethyl nicotinate], the Log partition coefficient (octanol/water at 20° C.) stood at 1.32.
As to `O=C(O)c1cccc(O)c1` [m-hydroxybenzoic], the Log partition coefficient (octanol/water) is 1.50.
Under “octanol/water at 20° C.”, `Cc1cccc(S(N)(=O)=O)c1` [m-methylbenzene sulphonamide] gave a Log partition coefficient of 0.85.
Turning to `NS(=O)(=O)c1cccc([N+](=O)[O-])c1` [m-nitrobezene sulphonamide], the Log partition coefficient (octanol/water at 20° C.) was found to be 0.55.
For the compound `NC(=O)c1cccnc1` [niacinamide, reference compound], the Log partition coefficient (octanol/water at 20° C.) is listed as 1.37.
Turning to `Oc1ccccc1O` [o-dihydroxybenzene], the Log partition coefficient (octanol/water at 20° C.) was 0.80.
Compound `Cc1ccccc1S(N)(=O)=O` [o-methylbenzene sulphonamide] gave a Log partition coefficient (octanol/water) of 0.84.
In the case of `Nc1ccc(C(=O)O)cc1` [p-aminobenzoic acid, reference compound], the Log partition coefficient (octanol/water) was determined as 0.68.
Consider `Oc1ccc(O)cc1` [p-dihyroxybenzene], for which, for the setting “octanol/water”, the Log partition coefficient was found to be 0.59.
With `Cc1ccc(S(N)(=O)=O)cc1` [p-methylbenzene sulphonamide], under “octanol/water at 20° C.”, the Log partition coefficient stood at 0.82.
The compound `NS(=O)(=O)c1ccc([N+](=O)[O-])cc1` [p-nitrobenzene sulphonamide] came in with a Log partition coefficient (octanol/water at 20° C.) of 0.64.
With `CCN(CC)CCOC(=O)c1ccc(N)cc1` [procaine, reference compound], the Log partition coefficient (octanol/water) worked out at 1.87.
For the compound `O=C1NS(=O)(=O)c2ccccc21` [saccharin], the Log partition coefficient (octanol/water) came to 0.91.
For the compound `O=C(O)c1ccccc1O` [salicylic acid, reference compound], the Log partition coefficient (octanol/water at 20° C.) came out at 2.26.
With `OC[C@@H](O)[C@@H](O)[C@H](O)[C@@H](O)CO` [sorbitol], in series [1], the “Effect on the cloud point temperature” value was “reduce the cloud point temperature”.
In turn, `O=C1C[C@@H]2OCC=C3CN4CC[C@]56c7ccccc7N1[C@H]5[C@H]2[C@H]3C[C@H]46` [strychnine] registered a Log partition coefficient (octanol/water) of 1.93.
`CCOC(=O)CC(O)(CC(=O)OCC)C(=O)OCC` [triethyl citrate]: under “octanol/water at 20° C.”, the Log partition coefficient was 0.67.
With `CC1(C)SC2C(NC(=O)C(O)c3ccccc3)C(=O)N2C1C(=O)O` (stereo not drawn) [α-hydroxy benzyl penicillin], the Log partition coefficient (octanol/water at 20° C.) was 1.40.

The record behind these values is patent US4699924A, “Skin treatment composition” (priority 1983, dated 1987).
